Measured values from patent US20260158102A1, “CYCLIC PEPTIDE DERIVATIVE COMPOSITION FOR TREATING OR PREVENTING NEUROPATHIC PAIN AND/OR INFLAMMATORY PAIN” (DKS Co. Ltd., priority 2022, published 2026).

Assay: Observation of general condition in rat STZ-induced diabetes model
Type: in vivo
Settings: 20 mg/kg oral, number of animals, 10 per group
Description: Compound 9 (50 mg/mL) was diluted with water for injection to obtain a 1 mg/mL administration specimen. For the specimens to be administered at 0.1 mg/mL and 0.01 mg/mL, the specimen to be administered at 1 mg/mL was diluted stepwise with water for injection. Each administration specimen was divided into PP disposable tubes every day and stored in a storehouse (freezer: MDF-MU339H-PJ, PHC Corporation) under the condition of freezing (−30° C. to −20° C., measured value: −26.4 to −24.5° C.). Preparation was performed on the day before the start of administration.
Water for injection was added to and dissolved in Pregabalin taken out from the capsule to obtain 2 mg/mL. It was prepared before use.
• Animal species: rat (SPF) • Strain: Crl: CD (SD) • Date of animal acquisition, gender, age in weeks, number of animals acquired, and weight range after 1 day of acquisition • First and second courses: Apr. 6, 2022, male, 7 weeks old, 35 animals, 217 to 237 g • Third and fourth courses: Apr. 13, 2022, male, 7 weeks old, 35 animals, 216 to 235 g • Source: […].
• Dose volume: calculated at 2 mL/kg based on the body weight on the day of administration. • Number of times of administration: once • Day of administration: 7 days before the day of starting administration of the test substance.
• Dose volume: calculated at 1 mL/kg based on the body weight on the day of administration. • Number of times of administration: 9 times • Interval of administration: once every 3 days (evaluation was performed on the day after administration) • Day of starting administration: day 8 of STZ administration (day of STZ administration is counted as day 1).
• Dose volume: calculated at 10 mL/kg based on the body weight on the day of administration. • Number of times of administration: Administration was performed once on the day of evaluation of neuropathic pain, twice in total, and on the other days of administration, a vehicle for a control substance (water for injection) was orally administered.
• Observation of general condition • Observation was performed once a day.

Measured: general condition

CC(C)C[C@H](CN)CC(=O)O [Pregabalin, reference compound]
10: day 1 of STZ administration | day 2 of STZ administration | day 3 of STZ administration | day 4 of STZ administration | day 5 of STZ administration | day 6 of STZ administration | day 7 of STZ administration | day 8 of STZ administration | day 9 of STZ administration | day 10 of STZ administration | day 11 of STZ administration | day 12 of STZ administration | day 13 of STZ administration | day 14 of STZ administration | day 15 of STZ administration | day 16 of STZ administration | day 17 of STZ administration | day 18 of STZ administration | day 19 of STZ administration | day 20 of STZ administration | day 21 of STZ administration | day 22 of STZ administration | day 23 of STZ administration | day 24 of STZ administration | day 25 of STZ administration | day 26 of STZ administration | day 27 of STZ administration | day 28 of STZ administration | day 29 of STZ administration | day 30 of STZ administration | day 31 of STZ administration | day 32 of STZ administration | day 33 of STZ administration | day 34 of STZ administration | day 35 of STZ administration
